We go through one substance from patent US12285454B2, “Anti-aging chinese herb extract, extraction method and use thereof” (HEALTH LIFE BIOSCIENCES INC, priority 2019, dated 2025).

This test deals with T1, telomerase (Homo sapiens, UniProt O14746).
T1 construct: endogenous in cells; host or cells: CCL137 normal human fibroblast cell line (ATCC)
Put plainly: Telomerase activity by PCR-ELISA (TRAP) in normal human fibroblasts. Format: cell-based. To be noted: CCL137 normal human fibroblasts, X ± S, N = 9. The text has this:
• Telomerase Activity Assay Kit (Roche, Switzerland); • CCL137 human fibroblast cell lines (American Type Culture Collection (ATCC)); • Ginseng-Astragalus membranaceus extract: the extract prepared in Example 1 of the present invention; • Astragalus membranaceus extract: the Astragalus membranaceus extract prepared in Example 3 of the present invention; • Ginseng extract: the ginseng extract prepared in Example 2 of the present invention. Method The effects of different extracts on the telomerase activity were detected by PCR-ELISA. Principle: This method is based on establishment of Telomeric Repeat Amplification Protocol (TRAP), which is used for PCR Amplification of telomerase mediated derivatives and combined with the subsequent ELISA method. […]
For the sample of each group, to the EP tube, 20 μl of the denaturing reagent were added and marked, and 5 μl of the obtained product after the PCR amplification was added. […] The absorbance value is then detected at 450 nm using the microplate reader and A690 nm was taken as a reference, and the value of the negative control will be subtracted from the absorption value for the sample of each group. […]
The test results were analyzed and processed by a SPSS18.0 statistical software. […]
The test methods and procedures for detection of the telomerase activity were the same as the Test Example 1, and the measured results were shown in Table 5.

T1 sequence (O14746 whole entry): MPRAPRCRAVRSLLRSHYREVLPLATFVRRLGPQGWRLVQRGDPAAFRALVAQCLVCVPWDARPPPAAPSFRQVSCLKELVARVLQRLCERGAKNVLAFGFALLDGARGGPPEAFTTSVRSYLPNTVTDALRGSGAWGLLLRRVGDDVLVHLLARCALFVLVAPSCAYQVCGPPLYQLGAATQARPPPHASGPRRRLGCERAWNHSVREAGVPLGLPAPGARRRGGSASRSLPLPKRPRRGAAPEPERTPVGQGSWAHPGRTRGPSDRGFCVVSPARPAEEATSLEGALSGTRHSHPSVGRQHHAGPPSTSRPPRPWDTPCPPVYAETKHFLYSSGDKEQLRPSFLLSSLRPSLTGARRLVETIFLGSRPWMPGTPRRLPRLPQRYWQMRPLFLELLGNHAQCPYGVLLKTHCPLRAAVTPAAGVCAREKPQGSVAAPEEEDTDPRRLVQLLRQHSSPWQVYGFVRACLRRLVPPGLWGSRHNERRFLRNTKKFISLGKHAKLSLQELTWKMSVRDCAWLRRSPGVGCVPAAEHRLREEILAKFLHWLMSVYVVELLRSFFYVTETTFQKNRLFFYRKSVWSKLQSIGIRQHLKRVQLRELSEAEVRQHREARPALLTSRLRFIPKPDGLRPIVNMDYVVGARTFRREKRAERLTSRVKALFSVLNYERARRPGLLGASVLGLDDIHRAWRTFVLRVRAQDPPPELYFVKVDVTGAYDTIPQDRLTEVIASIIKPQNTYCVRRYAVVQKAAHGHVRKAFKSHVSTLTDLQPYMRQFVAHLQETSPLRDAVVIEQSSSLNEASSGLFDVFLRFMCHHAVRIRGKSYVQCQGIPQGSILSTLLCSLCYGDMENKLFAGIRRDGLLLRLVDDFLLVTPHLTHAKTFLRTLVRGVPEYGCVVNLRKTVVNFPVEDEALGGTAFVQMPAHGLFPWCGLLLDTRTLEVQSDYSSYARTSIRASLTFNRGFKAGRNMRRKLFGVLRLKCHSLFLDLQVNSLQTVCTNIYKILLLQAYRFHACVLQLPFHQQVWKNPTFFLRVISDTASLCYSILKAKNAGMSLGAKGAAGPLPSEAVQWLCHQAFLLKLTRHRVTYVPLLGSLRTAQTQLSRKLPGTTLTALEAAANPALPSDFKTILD

On to Astragaloside, for which the “Telomerase activity (ΔA)” value (Table 5, high concentration group, extract concentration 100 ug/mL) is recorded as 0.436 and the “Telomerase activity (ΔA)” value (Table 5, medium concentration group, extract concentration 50 ug/mL) was determined as 0.453.
